Source: patent publication US8138188B2, “Melanocortin type 4 receptor agonist piperidinoylpyrrolidines” (Pfizer Inc., priority 2006, dated 2012)

Experiments:
[1] = In vitro metabolism rate determination, human liver microsome (HLM) assay; type: in vitro ADME; conditions: human liver microsomes, substrate 1 μM; read-out: HLM (intrinsic clearance)
Text: (§1) In vitro Metabolism Rate Determination (Human Liver Microsome (HLM); Rat Liver Microsome (RLM) Assay)
(§2) Many drugs are metabolised by the cytochrome P450 mono-oxygenase system. This enzyme is found in high concentrations in the liver and is bound to the endoplasmic reticulum of the hepatocyte. The enzyme system can be obtained in semi-purified state by the preparation of the hepatic microsomal fractions. Determining a compound's in vitro half-life in such a system provides a useful indicator of metabolic stability.
(§3) Methodology For In Vitro Rate Determination Using Hepatic & Supermix Microsomes
(§4) The method outlined below is for a total incubation volume of 1.5 ml.
(§5) 1. The following mixture is prepared in a test tube:
(§6) 2. Defrost microsomes at room temperature and add sufficient microsomes to give a final concentration of 0.5 nmol cytochrome P450/ml of incubation e.g. for a 1.5 ml incubation, the volume of microsomes to be added is:
(§7) [formula] 3. Add sufficient MilliQ water to give a total incubation volume of 1.425 ml. 4. Remove 237.5 μl of incubation mix and place in test tube for PNA positive control. Add 2.5 μl of PNA solution, whirlimix, and put tube into a rack in the thermostatically controlled shaking water bath 5. Remove 100 μl for no substrate control and dispense in test tube. Place test tube in a rack in the thermostatically controlled shaking water bath. 6. Add substrate to the incubation. The substrate should be at an initial concentration of 1 μM. The volume of substrate required in the remaining 1.162.5 ml incubation is calculated as follows:
(§8) [formula] • N.B. The volume of organic solvent added should not exceed 0.1% of the total incubation volume. 7. Remove 100 μl of incubation mix into test tube for no cofactor control. Whirlimix and put into a rack in the thermostatically controlled shaking water bath. 8. Pre-incubate the tube containing the incubation mix, also positive control and no cofactor tubes in the thermostatically controlled shaking water bath set at 37° C. for approx 5 min. 9. Add NADP to initiate reaction (75 μl to each 1.162.5 ml incubation mix, 12.5 μl to positive control tube and 5 μl to no substrate tube) and take first time point immediately. The PNA positive control, no cofactor control and no substrate tubes are incubated for the total incubation time. 10. Remove 100 μl aliquots up to 9 different sampling points from 0 to 60 min (usually 0, 3, 5, 10, 15, 20, 30, 45 & 60 min) and terminate reaction. Longer incubation times can be used, but, after 120 min the microsomes deteriorate. The reaction may be terminated by addition of organic solvent, acid or base. At the end of the incubation process the no cofactor and no substrate controls in a similar manner i.e. terminate with the same reagent. 11. PNA Positive Control Procedure: • After the final sample has been taken, remove the positive control and add 1 ml 20% TCA to this tube. Also prepare a tube containing 250 μl of a PNP standard at 50 μM, and add 1 ml 20% TCA. Whirlimix both tubes and leave for approx 5 min to allow the protein to precipitate. • Centrifuge both tubes for approx 5 min in an instrument set at 3500 rpm. Remove 1 ml of supernatant and place into clean test tubes, discard the remainder. • Add 1 ml 10M NaOH to the supernatant, whirlimix, and leave to stand for approx min. Blank spectrophotometer with distilled water at 400 nm then measure absorbance of the PNP standard against distilled water. The microsomal 4-nitroanisole O-demethylase activity is calculated as follows: Calculation of Results
(§9) [formula] • The activity value from the incubation MUST be equal to or greater than 85% of the mean value of the batch used for the incubation to be valid. If this criteria is not met, then the incubation must be repeated. 11. Analyse samples (including no cofactor and no substrate control) by a specific assay for the substrate to determine the disappearance kinetics. Analysis Of Data […]

[2] = target: T1, MC4 receptor (MC4R) (Homo sapiens, UniProt P32245); experiment: AGRP inhibition: competition binding vs [125I]AGRP(87-132) at CHO-CRE MC4R cell membranes; conditions: vs 0.3 nM [125I]AGRP(87-132)
T1 construct: expressed in transfected cells; host or cells: CHO-CRE MC4R cells (membranes)
T1 sequence (P32245 whole entry): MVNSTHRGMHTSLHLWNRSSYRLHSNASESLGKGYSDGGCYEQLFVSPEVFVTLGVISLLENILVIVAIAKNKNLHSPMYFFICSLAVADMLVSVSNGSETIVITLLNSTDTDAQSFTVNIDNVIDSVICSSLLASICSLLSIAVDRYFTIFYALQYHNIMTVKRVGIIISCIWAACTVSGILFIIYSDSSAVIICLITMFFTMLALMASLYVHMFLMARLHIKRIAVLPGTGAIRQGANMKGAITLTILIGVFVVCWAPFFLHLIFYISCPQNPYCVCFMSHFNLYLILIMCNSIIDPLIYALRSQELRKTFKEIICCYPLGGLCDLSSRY
Text: Agouti related protein (AGRP) is a high affinity endogenous antagonist/inverse agonist for the MC4 receptor (Lu et al., 1994, Nature 371: 799-802; Oilman et al., 1997, Science 278: 135-138). […] It has been ascertained that this C-terminal fragment of AGRP contains the MC4R binding determinants (Yang et al., 1999, Mol Endocrinol 13: 148-155), therefore, compounds can be evaluated for their ability to inhibit AGRP binding to membranes from cells expressing the MC4R using a competition binding assay versus [^125I]AGRP(87-132). To this end cells expressing the MC4R were subject to homogenisation and the membrane fragment isolated by differential centrifugation. CHO-CRE MC4R cell membranes (12 μg protein) were incubated with 0.3 nM [^125I]AGRP(87-132) and 11 half-log concentrations of competitor ligand, in duplicate, in a total volume of 100 μl buffer (25 mM HEPES, 1 mM MgCl2, 2.5 mM CaCl2, 0.5% BSA pH 7.0). Non-specific binding was determined by the inclusion of 1 μM SHU9119. The reaction was initiated by the addition of membranes and plates were incubated at room temperature for 2 hours. The reaction was terminated by rapid filtration onto GF/C filters (presoaked in 1% PEI) using a vacuum harvester followed by five 200 μl washes of ice cold wash buffer (Binding buffer containing 500 mM NaCl). The filters were soaked in 50 μl scintillation fluid and the amount of radioactivity present was determined by liquid scintillation counting. Ki values were determined by data analysis using appropriate software.

[3] = In vitro metabolism rate determination, rat liver microsome (RLM) assay; type: in vitro ADME; conditions: rat liver microsomes, substrate 1 μM; read-out: RLM (intrinsic clearance)
Text: as §1, §2, §3, §4, §5, §6, §7, §8, §9

Compound	microsomal CLint at 1 μM [1]	Ki [2]	microsomal CLint at 1 μM [3]
C[C@@H]1CN(C(=O)[C@@H]2CN(c3cccnn3)C[C@H]2c2ccc(Cl)cn2)C[C@H](C)[C@@]1(O)c1ccccn1 [Example 9, (3R,4R,5S)-1-{[(3S,4S)-4-(5-chloropyridin-2-yl)-1-pyridazin-3-ylpyrrolidin-3-yl]carbonyl}-3,5-dimethyl-4-pyridin-2-ylpiperidin-4-ol]	240 µL/min/mg	523 nM	411 µL/min/mg
COc1ccc(N2CC(C(=O)N3CC(C)C(O)(C4CC4)C(C)C3)C(c3ccc(Cl)cn3)C2)nn1 (stereo not shown) [Example 26]	70 µL/min/mg	363 nM	> 510 µL/min/mg
CC1CN(C(=O)C2CN(c3ccc(=O)n(C)n3)CC2c2ccc(F)cn2)CC(C)C1(O)c1ccc(F)cc1 (stereo not shown) [Example 40]	< 7 µL/min/mg	430 nM	< 8.5 µL/min/mg
COc1ccc([C@@H]2CN(c3ccc(=O)[nH]n3)C[C@H]2C(=O)N2C[C@@H](C)[C@](O)(c3ccc(Cl)cn3)[C@@H](C)C2)nc1 [Example 41]	21 µL/min/mg	3750 nM	30 µL/min/mg
CC1CN(C(=O)C2CN(c3ccc(=O)[nH]n3)CC2c2ccc(F)cn2)CC(C)C1(O)c1ccccc1 (stereo not shown) [Example 37]	19.5 µL/min/mg	422 nM	23 µL/min/mg
C[C@@H]1CN(C(=O)[C@@H]2CN(c3cncc(F)c3)C[C@H]2c2ccc(Cl)cn2)C[C@H](C)[C@@]1(O)c1ccccn1 [Example 8, (3R,4R,5S)-1-{[(3S,4S)-4-(5-chloropyridin-2-yl)-1-(5-fluoropyridin-3-yl)pyrrolidin-3-yl]carbonyl}-3,5-dimethyl-4-pyridin-2-ylpiperidin-4-ol]	> 440 µL/min/mg	643 nM	> 510 µL/min/mg
C[C@@H]1CN(C(=O)[C@@H]2CN(c3ccc(=O)n(C)n3)C[C@H]2c2ccc(Cl)cn2)C[C@H](C)[C@@]1(O)C1CC1 [Example 18]	67 µL/min/mg	965 nM	68 µL/min/mg
C[C@@H]1CN(C(=O)[C@@H]2CN(c3ccc(C#N)cn3)C[C@H]2c2ccc(Cl)cn2)C[C@H](C)[C@@]1(O)c1ccc(F)cc1 [Example 1, 6-[(3S,4S)-3-(5-Chloropyridin-2-yl)-4-{[(3R,4R,5S)-4-(4-fluorophenyl)-4-hydroxy-3,5-dimethylpiperidin-1-yl]carbonyl}pyrrolidin-1-yl]nicotinonitrile]	< 7 µL/min/mg	39 nM	< 8.5 µL/min/mg
CC1CN(C(=O)C2CN(c3ccc(=O)n(C)n3)CC2c2ccc(Cl)cn2)CC(C)C1(O)c1ccc(Cl)cc1 (stereo not shown) [Example 23]	< 15.5 µL/min/mg	79 nM	< 8.5 µL/min/mg
CC1CN(C(=O)C2CN(c3ccc(C#N)nn3)CC2c2ccc(Cl)cn2)CC(C)C1(O)c1ccccn1 (stereo not shown) [Example 30]	141 µL/min/mg	112 nM	69.5 µL/min/mg
C[C@@H]1CN(C(=O)[C@@H]2CN(c3ccc(Cl)nn3)C[C@H]2c2ccc(F)cn2)C[C@H](C)[C@@]1(O)c1ccc(Cl)cc1 [Example 5, (3R,4R,5S)-4-(4-chlorophenyl)-1-{[(3S,4S)-1-(6-chloropyridazin-3-yl)-4-(5-fluoropyridin-2-yl)pyrrolidin-3-yl]carbonyl}-3,5-dimethylpiperidin-4-ol]	< 7 µL/min/mg	552 nM	27 µL/min/mg
CC1CN(C(=O)C2CN(c3ccc(=O)n(C)n3)CC2c2ccc(Cl)cn2)CC(C)C1(O)c1ccc(F)c(F)c1 (stereo not shown) [Example 19]	21 µL/min/mg	79 nM	21 µL/min/mg
CC1CN(C(=O)C2CN(c3ccc(C#N)cn3)CC2c2ccc(C#N)cn2)CC(C)C1(O)c1ccc(F)cc1 (stereo not shown) [Example 45]	< 7 µL/min/mg	251 nM	< 8.5 µL/min/mg
CC1CN(C(=O)C2CN(c3ccc(=O)n(C)n3)CC2c2ccc(Cl)cn2)CC(C)C1(O)c1ccccc1 (stereo not shown) [Example 21]	144 µL/min/mg	66 nM	58.5 µL/min/mg
CC1CN(C(=O)C2CN(c3cncc(F)c3)CC2c2ccc(Cl)cn2)CC(C)C1(O)c1ccc(F)cc1 (stereo not shown) [Example 25]	308 µL/min/mg	278 nM	172 µL/min/mg
COc1ccc(C2(O)C(C)CN(C(=O)C3CN(c4ccc(=O)n(C)n4)CC3c3ccc(Cl)cn3)CC2C)cc1 (stereo not shown) [Example 20]	31 µL/min/mg	253 nM	51.5 µL/min/mg
C[C@@H]1CN(C(=O)[C@@H]2CN(c3ccc(=O)[nH]n3)C[C@H]2c2ccc(Cl)cn2)C[C@H](C)[C@@]1(O)c1ccccn1 [Example 28]	33 µL/min/mg	516 nM	51 µL/min/mg
CC1CN(C(=O)C2CN(c3ccc(=O)[nH]n3)CC2c2ccc(Cl)cn2)CC(C)C1(O)c1ccccc1 (stereo not shown) [Example 27]	51 µL/min/mg	100 nM	31 µL/min/mg
C[C@@H]1CN(C(=O)[C@@H]2CN(c3ccc(C#N)nn3)C[C@H]2c2ccc(F)cn2)C[C@H](C)[C@@]1(O)c1ccc(Cl)cc1 [Example 32]	8 µL/min/mg	160 nM	< 8.5 µL/min/mg
C[C@@H]1CN(C(=O)[C@@H]2CN(c3ccc(=O)n(C)n3)C[C@H]2c2ccc(Cl)cn2)C[C@H](C)[C@@]1(O)c1ccccn1 [Example 22]	179 µL/min/mg	5960 nM	96 µL/min/mg
C[C@@H]1CN(C(=O)[C@@H]2CN(c3ccc(=O)n(C)n3)C[C@H]2c2ccc(Cl)cn2)C[C@H](C)[C@@]1(O)c1ccc(Cl)cn1 [Example 10]	20.5 µL/min/mg	223 nM	42 µL/min/mg
COc1ccc([C@@H]2CN(c3ccc(C#N)nn3)C[C@H]2C(=O)N2C[C@@H](C)[C@](O)(c3ccc(F)cc3)[C@@H](C)C2)nc1 [Example 43]	37 µL/min/mg	248 nM	–
C[C@@H]1CN(C(=O)[C@@H]2CN(c3ccc(=O)[nH]n3)C[C@H]2c2ccc(F)cn2)C[C@H](C)[C@@]1(O)c1ccc(Cl)cc1 [Example 6, 6-[(3S,4S)-3-{[(3R,4R,5S)-4-(4-chlorophenyl)-4-hydroxy-3,5-dimethylpiperidin-1-yl]carbonyl}-4-(5-fluoropyridin-2-yl)pyrrolidin-1-yl]pyridazin-3(2H)-one]	–	456 nM	< 8.5 µL/min/mg
